Where “and” joins values, the source holds several entries; their conditions need not be identical. Equal values may be shown once. Numbered stars: 1 amine (or outer) side, 2 acyl side, 3 side chain; on linkers, the order of the positions; unused ones are H or OH. Square brackets hold non-standard residues; d marks the D form. Peptide text beside a SMILES is read from it. * marks the point of attachment. Benzoyl(4-SiFtBu2) = CC(C)(C)[Si](F)(c1ccc(C(=O)*)cc1)C(C)(C)C; DOTA = O=C(O)CN1CCN(CC(=O)O)CCN(CC(=O)*)CCN(CC(=O)O)CC1; PEG12 = NCCOCCOCCOCCOCCOCCOCCOCCOCCOCCOCCOCCOCCC(=O)O; d(γGlu) = O=C(O)[C@@H](CCC(=O)[*:2])N[*:1]; PEG8 = NCCOCCOCCOCCOCCOCCOCCOCCOCCC(=O)O; 1Nal = N[C@@H](Cc1cccc2ccccc12)C(=O)O; PEG5 = NCCOCCOCCOCCOCCOCCC(=O)O; NMeNle = CCCC[C@H](NC)C(=O)O; PEG4 = NCCOCCOCCOCCOCCC(=O)O; dDap = NC[C@@H](N)C(=O)O
Assays:
[1] = system: AR42J tumor-bearing CB17-SCID mice; conditions: 24 h p.i.; cited from earlier work
[2] = biological target: T1, Human serum albumin (HSA) (Homo sapiens, UniProt P02768); test: Human serum albumin binding via high performance affinity chromatography (HPAC); type: in vitro ADME; conditions: Chiralpak HSA column
T1 construct: purchased Daicel, Tokyo, Japan H13H-2433
T1 sequence (P02768 25-609): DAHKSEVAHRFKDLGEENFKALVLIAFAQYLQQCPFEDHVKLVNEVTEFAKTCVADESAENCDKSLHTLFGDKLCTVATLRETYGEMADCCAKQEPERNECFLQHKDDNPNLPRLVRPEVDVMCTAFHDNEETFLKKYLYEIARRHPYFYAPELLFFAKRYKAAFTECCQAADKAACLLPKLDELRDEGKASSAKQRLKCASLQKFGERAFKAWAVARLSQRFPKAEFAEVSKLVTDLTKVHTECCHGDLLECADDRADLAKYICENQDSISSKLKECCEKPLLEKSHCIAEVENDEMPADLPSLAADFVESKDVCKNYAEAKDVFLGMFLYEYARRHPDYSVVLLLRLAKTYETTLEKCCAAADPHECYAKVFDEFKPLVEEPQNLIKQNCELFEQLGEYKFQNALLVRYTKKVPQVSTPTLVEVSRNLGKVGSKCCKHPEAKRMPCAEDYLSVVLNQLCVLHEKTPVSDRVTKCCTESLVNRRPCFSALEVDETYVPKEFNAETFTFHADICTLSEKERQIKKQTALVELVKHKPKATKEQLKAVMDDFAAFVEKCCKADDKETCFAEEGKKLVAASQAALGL
Experimental: Human serum albumin (HSA) binding was determined via high performance affinity chromatography (HPAC), according to previously published protocols. Human serum albumin interaction was calculated according to the retention time (n = 1) of our compounds on a Chiralpak HSA column in dependence of nine reference compounds with known HSA interaction.
Human serum albumin binding was determined via high performance affinity chromatography. Therefore, a Chiralpak HSA column (50 × 3 mm, 5 µm, H13H-2433, Daicel, Tokyo, Japan) was used at a constant flow rate of 0.5 ml/min at room temperature. Mobile phase A consisted of a freshly prepared aqueous solution of NH4OAc (pH = 6.9, 50 mM) and mobile phase B of isopropanol. Calibration of the column was performed daily prior to experiments, by determining the retention times of nine reference substances displaying a HSA binding from 13 to 99%. HPLC gradient for all compounds tested was 100% A (0 to 3 min), followed by 80% A (3 to 40 min). All substances tested, were dissolved in a mixture of A/B (0.5 mg/mL, 1:1, v/v). OriginPro 2016G software (Northampton, United States) was used for non-linear regression and data evaluation.

[3] = Lipophilicity, n-octanol/PBS distribution coefficient logD7.4; type: physicochemical; conditions: 177Lu-labeled peptide; n-octanol/PBS (1/1), n ≥ 5
Experimental: For determination of lipophilicity, the respective ^177Lu-Labeled peptide precursor (~ 1 MBq, 10 µL in 0.04 M HCl) was added to a solution of n-octanol/PBS (1/1, v/v, 1 mL) and vigourously mixed for 3 min at room temperature (n ≥ 5). Afterwards both phases were seperated using a Biofuge 15 centrifuge (Heraus Sepatech GmbH, Osterode, Germany) at 9,000 rpm for 5 min. 200 µL aliquots of both layers were collected separately, measured in a γ-counter (Perkin Elmer, Waltham, MA, USA) and the logD7.4 value was obtained.

Row | Molecule | logD [3] | HSA binding ([2]; n = 1) [%] | also measured
1 | CCCC[C@H](NC(=O)[C@H](Cc1c[nH]c2ccccc12)NC(=O)CNC(=O)[C@H](Cc1ccc(O)cc1)NC(=O)[C@H](C)NC(=O)CC[C@@H](NC(=O)CC[C@@H](NC(=O)CC[C@@H](NC(=O)CC[C@@H](NC(=O)CC[C@@H](NC(=O)CC[C@@H](NC(=O)CC[C@@H](NC(=O)CC[C@@H](NC(=O)[C@@H](CNC(=O)c1ccc([Si](F)(C(C)(C)C)C(C)(C)C)cc1)NC(=O)CN1CCN(CC(=O)O)CCN(CC(=O)O)CCN(CC(=O)O)CC1)C(=O)O)C(=O)O)C(=O)O)C(=O)O)C(=O)O)C(=O)O)C(=O)O)C(=O)O)C(=O)N[C@@H](CC(=O)O)C(=O)N[C@@H](Cc1ccccc1)C(N)=O [[^177Lu]Lu-DOTA-rhCCK-18, DOTA-D-Dap(p-SiFA)-(D-γ-Glu)8-Ala-Tyr-Gly-Trp-Nle-Asp-Phe-NH2, metal not drawn] |  |  | activity levels in the bone [1]: 0.20 ± 0.03 %ID/g; activity levels in the liver [1]: 0.22 ± 0.01 %ID/g; activity levels in the spleen [1]: 0.34 ± 0.09 %ID/g; activity levels in the stomach [1]: 4.3 ± 1.1 %ID/g; activity levels in the tumor [1]: 25.4 ± 4.7 %ID/g; activity uptake in the kidneys [1]: 134 ± 18 %ID/g; tumor-to-kidney ratio [1]: 0.19 ± 0.01; HSA binding ([2]; n = 1, listed as [^natLu]Lu-DOTA-rhCCK-18): 87.1% and 87%
2 | CCCC[C@@H](C(=O)N[C@@H](CC(=O)O)C(=O)N[C@@H](Cc1cccc2ccccc12)C(N)=O)N(C)C(=O)[C@H](Cc1c[nH]c2ccccc12)NC(=O)CCOCCOCCOCCOCCNC(=O)CC[C@@H](NC(=O)CCOCCOCCOCCOCCOCCNC(=O)[C@@H](CNC(=O)c1ccc([Si](F)(C(C)(C)C)C(C)(C)C)cc1)NC(=O)CN1CCN(CC(=O)O)CCN(CC(=O)O)CCN(CC(=O)O)CC1)C(=O)O [[^nat/177Lu]Lu-DOTA-rhCCK-67, DOTA-D-Dap(p-SiFA)-(PEG)4-B, metal not drawn] ({DOTA}-[dDap](Benzoyl(4-SiFtBu2))[PEG5][d(γGlu)][PEG4]W[NMeNle]D[1Nal]-NH2) | -1.05 ± 0.09 | 92.9 | 
3 | CCCC[C@@H](C(=O)N[C@@H](CC(=O)O)C(=O)N[C@@H](Cc1cccc2ccccc12)C(N)=O)N(C)C(=O)[C@H](Cc1c[nH]c2ccccc12)NC(=O)CCOCCOCCOCCOCCNC(=O)CC[C@@H](NC(=O)CCOCCOCCOCCOCCOCCNC(=O)CC[C@@H](NC(=O)[C@@H](CNC(=O)c1ccc([Si](F)(C(C)(C)C)C(C)(C)C)cc1)NC(=O)CN1CCN(CC(=O)O)CCN(CC(=O)O)CCN(CC(=O)O)CC1)C(=O)O)C(=O)O [[^nat/177Lu]Lu-DOTA-rhCCK-68, DOTA-D-Dap(p-SiFA)-D-γ-Glu-(PEG)4-B, metal not drawn] | -1.65 ± 0.09 | 91.2 | 
4 | CCCC[C@@H](C(=O)N[C@@H](CC(=O)O)C(=O)N[C@@H](Cc1cccc2ccccc12)C(N)=O)N(C)C(=O)[C@H](Cc1c[nH]c2ccccc12)NC(=O)CCOCCOCCOCCOCCNC(=O)CC[C@@H](NC(=O)CCOCCOCCOCCOCCOCCOCCOCCOCCNC(=O)CC[C@@H](NC(=O)[C@@H](CNC(=O)C[N+](C)(C)Cc1ccc([Si](F)(C(C)(C)C)C(C)(C)C)cc1)NC(=O)CN1CCN(CC(=O)O)CCN(CC(=O)O)CCN(CC(=O)O)CC1)C(=O)O)C(=O)O [[^nat/177Lu]Lu-DOTA-rhCCK-71, DOTA-D-Dap(SiFAlin)-D-γ-Glu-(PEG)7-B, metal not drawn] | -1.63 ± 0.06 | 89.1 | 
5 | CCCC[C@@H](C(=O)N[C@@H](CC(=O)O)C(=O)N[C@@H](Cc1cccc2ccccc12)C(N)=O)N(C)C(=O)[C@H](Cc1c[nH]c2ccccc12)NC(=O)CCOCCOCCOCCOCCNC(=O)CC[C@@H](NC(=O)CCOCCOCCOCCOCCOCCOCCOCCOCCNC(=O)CC[C@@H](NC(=O)[C@@H](CNC(=O)c1cc(C(=O)O)cc([Si](F)(C(C)(C)C)C(C)(C)C)c1)NC(=O)CN1CCN(CC(=O)O)CCN(CC(=O)O)CCN(CC(=O)O)CC1)C(=O)O)C(=O)O [[^nat/177Lu]Lu-DOTA-rhCCK-72, DOTA-D-Dap(SiFA-ipa)-D-γ-Glu-(PEG)7-B, metal not drawn] | -2.32 ± 0.03 | 89.3 | 
6 | CCCC[C@@H](C(=O)N[C@@H](CC(=O)O)C(=O)N[C@@H](Cc1cccc2ccccc12)C(N)=O)N(C)C(=O)[C@H](Cc1c[nH]c2ccccc12)NC(=O)CCOCCOCCOCCOCCNC(=O)CC[C@@H](NC(=O)CCOCCOCCOCCOCCOCCOCCOCCOCCNC(=O)[C@@H](CNC(=O)c1ccc([Si](F)(C(C)(C)C)C(C)(C)C)cc1)NC(=O)CN1CCN(CC(=O)O)CCN(CC(=O)O)CCN(CC(=O)O)CC1)C(=O)O [[^nat/177Lu]Lu-DOTA-rhCCK-73, DOTA-D-Dap(p-SiFA)-(PEG)7-B, metal not drawn] ({DOTA}-[dDap](Benzoyl(4-SiFtBu2))[PEG8][d(γGlu)][PEG4]W[NMeNle]D[1Nal]-NH2) | -1.02 ± 0.06 | 90.4 | 
7 | CCCC[C@@H](C(=O)N[C@@H](CC(=O)O)C(=O)N[C@@H](Cc1cccc2ccccc12)C(N)=O)N(C)C(=O)[C@H](Cc1c[nH]c2ccccc12)NC(=O)CCOCCOCCOCCOCCNC(=O)CC[C@@H](NC(=O)CCOCCOCCOCCOCCOCCOCCOCCOCCOCCOCCOCCOCCNC(=O)[C@@H](CNC(=O)c1ccc([Si](F)(C(C)(C)C)C(C)(C)C)cc1)NC(=O)CN1CCN(CC(=O)O)CCN(CC(=O)O)CCN(CC(=O)O)CC1)C(=O)O [[^nat/177Lu]Lu-DOTA-rhCCK-74, DOTA-D-Dap(p-SiFA)-(PEG)11-B, metal not drawn] ({DOTA}-[dDap](Benzoyl(4-SiFtBu2))[PEG12][d(γGlu)][PEG4]W[NMeNle]D[1Nal]-NH2) | -1.19 ± 0.07 | 87.2 | 
8 | CCCC[C@@H](C(=O)N[C@@H](CC(=O)O)C(=O)N[C@@H](Cc1cccc2ccccc12)C(N)=O)N(C)C(=O)[C@H](Cc1c[nH]c2ccccc12)NC(=O)CCOCCOCCOCCOCCNC(=O)CC[C@@H](NC(=O)CCOCCOCCOCCOCCOCCOCCOCCOCCOCCOCCOCCOCCNC(=O)CC[C@@H](NC(=O)[C@@H](CNC(=O)C[N+](C)(C)Cc1ccc([Si](F)(C(C)(C)C)C(C)(C)C)cc1)NC(=O)CN1CCN(CC(=O)O)CCN(CC(=O)O)CCN(CC(=O)O)CC1)C(=O)O)C(=O)O [[^nat/177Lu]Lu-DOTA-rhCCK-75, DOTA-D-Dap(SiFAlin)-D-γ-Glu-(PEG)11-B, metal not drawn] | -1.15 ± 0.05 | 90.9 | 
9 | CCCC[C@@H](C(=O)N[C@@H](CC(=O)O)C(=O)N[C@@H](Cc1cccc2ccccc12)C(N)=O)N(C)C(=O)[C@H](Cc1c[nH]c2ccccc12)NC(=O)CCOCCOCCOCCOCCNC(=O)CC[C@@H](NC(=O)CCOCCOCCOCCOCCOCCOCCOCCOCCOCCOCCOCCOCCNC(=O)CC[C@@H](NC(=O)[C@@H](CNC(=O)c1ccc([Si](F)(C(C)(C)C)C(C)(C)C)cc1)NC(=O)CN1CCN(CC(=O)O)CCN(CC(=O)O)CCN(CC(=O)O)CC1)C(=O)O)C(=O)O [[^nat/177Lu]Lu-DOTA-rhCCK-76, DOTA-D-Dap(p-SiFA)-D-γ-Glu-(PEG)11-B, metal not drawn] | -1.82 ± 0.09 | 86.2 | 
10 | DOTA-(D-Glu)6-Ala-Tyr-Gly-Trp-Nle-Asp-Phe-NH2 [[^177Lu]Lu-DOTA-PP-F11N] |  |  | activity levels in the tumor [1]: 1.9 ± 0.8 %ID/g; kidney retention [1]: 3.1 ± 0.6 %ID/g
11 | DOTA-D-Glu-Ala-Tyr-Gly-Trp-(N-Me)Nle-Asp-1-Nal-NH2 [[^177Lu]Lu-DOTA-MGS5] |  |  | activity levels in the tumor [1]: 11.0 ± 1.2 %ID/g; kidney retention [1]: 1.3 ± 0.4 %ID/g; tumor-to-kidney ratio [1]: 9.4 ± 3.3; tumor-to-stomach ratio [1]: 4.4 ± 0.7

Reference: article PMC10907560, “Significant reduction of activity retention in the kidneys via optimized linker sequences in radiohybrid-based minigastrin analogs” (EJNMMI Research, 2024)
